# Molecular target: T1, ETFFN (EtfAB, FN1533-FN1534) (Fusobacterium polymorphum, UniProt A0A1Z3CIN2+A0A1Z3CJK5)
# T1 construct: gene CBG50_09400; heterodimer, His6 tag on N-terminus of EtfB; EtfA 34,980 Da, tagged EtfB 30,560 Da; E. coli BL21(DE3)
# T1 sequence (A0A1Z3CIN2 1-322): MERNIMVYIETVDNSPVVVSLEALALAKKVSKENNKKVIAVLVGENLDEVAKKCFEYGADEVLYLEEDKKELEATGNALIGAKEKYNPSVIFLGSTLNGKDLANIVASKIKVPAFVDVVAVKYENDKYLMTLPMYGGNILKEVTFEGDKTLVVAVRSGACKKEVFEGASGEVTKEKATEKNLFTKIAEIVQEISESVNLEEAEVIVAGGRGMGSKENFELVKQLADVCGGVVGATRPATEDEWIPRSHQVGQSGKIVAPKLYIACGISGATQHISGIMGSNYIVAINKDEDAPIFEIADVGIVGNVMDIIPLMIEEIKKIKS
# T1 sequence (A0A1Z3CJK5 1-259): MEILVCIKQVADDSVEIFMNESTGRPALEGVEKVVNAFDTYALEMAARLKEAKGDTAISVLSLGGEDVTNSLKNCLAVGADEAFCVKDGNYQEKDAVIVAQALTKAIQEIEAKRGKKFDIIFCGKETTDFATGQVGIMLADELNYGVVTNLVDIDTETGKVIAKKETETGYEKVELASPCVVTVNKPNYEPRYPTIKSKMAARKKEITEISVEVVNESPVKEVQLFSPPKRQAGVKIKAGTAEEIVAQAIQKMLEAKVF
# Experiment: UV-visible spectrum; FAD released by heat denaturation
# Format: binding
# Conditions: copurified; FAD in alpha-subunit; FAD to protein ratio determined
structure (smiles),measurement,value
Cc1cc2nc3c(=O)[nH]c(=O)nc-3n(C[C@H](O)[C@H](O)[C@H](O)COP(=O)(O)OP(=O)(O)OC[C@H]3O[C@@H](n4cnc5c(N)ncnc54)[C@H](O)[C@@H]3O)c2cc1C [FAD],UV-visible spectrum; FAD released by heat denaturation,diagnostic of the FAD cofactor

# Source: article PMC12630350, “Direct coupling of lactate oxidation with butyryl-CoA formation via a canonical electron transfer flavoprotein in Fusobacterium nucleatum” (The Journal of Biological Chemistry, 2025)
